Assay results from patent publication US11623919B2, “Heterocyclic P2X7 antagonists” (AXXAM S.P.A., priority 2017, dated 2023).

Assays:
P2X7 receptor [1] = biological target: T1, P2X7 receptor (Rattus norvegicus, UniProt Q64663); test: Screen Quest Fluo-8 No Wash Calcium Assay (Bz-ATP evoked Ca2+ influx, FLIPR); assay type: cell-based; conditions: rP2X7; HEK-293 cells stably transfected with P2X7 receptor, Bz-ATP at EC80, Fluo-8 NW; potency ranges A-D
T1 construct: rP2X7 (IC50; nM); other: rP2X7; HEK-293 cells stably transfected with P2X7 receptor, Bz-ATP at EC80, Fluo-8 NW; potency
T1 sequence (Q64663 1-595): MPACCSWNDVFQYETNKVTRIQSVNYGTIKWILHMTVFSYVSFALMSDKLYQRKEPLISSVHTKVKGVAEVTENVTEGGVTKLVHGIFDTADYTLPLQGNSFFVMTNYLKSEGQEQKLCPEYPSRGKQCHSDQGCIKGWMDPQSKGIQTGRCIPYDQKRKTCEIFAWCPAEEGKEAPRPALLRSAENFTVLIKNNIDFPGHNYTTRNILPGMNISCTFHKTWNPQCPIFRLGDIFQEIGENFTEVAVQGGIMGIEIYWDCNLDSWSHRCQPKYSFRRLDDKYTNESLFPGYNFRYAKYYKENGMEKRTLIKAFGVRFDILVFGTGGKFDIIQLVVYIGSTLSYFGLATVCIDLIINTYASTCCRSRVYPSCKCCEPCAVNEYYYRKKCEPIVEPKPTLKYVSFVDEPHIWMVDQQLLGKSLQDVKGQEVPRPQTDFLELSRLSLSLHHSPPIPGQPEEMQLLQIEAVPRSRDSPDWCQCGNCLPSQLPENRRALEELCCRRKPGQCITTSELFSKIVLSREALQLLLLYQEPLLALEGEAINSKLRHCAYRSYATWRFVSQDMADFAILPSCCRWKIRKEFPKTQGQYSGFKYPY
Method in brief: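 HEK-293 cells stably expressing P2X7 were loaded with Fluo-8 NW for 1 h at RT, then given compound, and 5 min later Bz-ATP at EC80. Fluorescence was read by FLIPR in low divalent cation buffer (0.3 mM Ca2+, 0 mM Mg2+). IC50 came from percent inhibition relative to reference antagonist A438079.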

P2X7 receptor [2] = biological target: T2, P2X7 receptor (Homo sapiens, UniProt Q99572); test: YO-PRO-1 uptake assay; assay type: cell-based; set-up: expressed in transfected cells; conditions: HEK-293 cells stably transfected with P2X7 receptor; Bz-ATP EC80 (30 μM); Low Divalent Cation Assay Buffer
T2 sequence (Q99572 1-595): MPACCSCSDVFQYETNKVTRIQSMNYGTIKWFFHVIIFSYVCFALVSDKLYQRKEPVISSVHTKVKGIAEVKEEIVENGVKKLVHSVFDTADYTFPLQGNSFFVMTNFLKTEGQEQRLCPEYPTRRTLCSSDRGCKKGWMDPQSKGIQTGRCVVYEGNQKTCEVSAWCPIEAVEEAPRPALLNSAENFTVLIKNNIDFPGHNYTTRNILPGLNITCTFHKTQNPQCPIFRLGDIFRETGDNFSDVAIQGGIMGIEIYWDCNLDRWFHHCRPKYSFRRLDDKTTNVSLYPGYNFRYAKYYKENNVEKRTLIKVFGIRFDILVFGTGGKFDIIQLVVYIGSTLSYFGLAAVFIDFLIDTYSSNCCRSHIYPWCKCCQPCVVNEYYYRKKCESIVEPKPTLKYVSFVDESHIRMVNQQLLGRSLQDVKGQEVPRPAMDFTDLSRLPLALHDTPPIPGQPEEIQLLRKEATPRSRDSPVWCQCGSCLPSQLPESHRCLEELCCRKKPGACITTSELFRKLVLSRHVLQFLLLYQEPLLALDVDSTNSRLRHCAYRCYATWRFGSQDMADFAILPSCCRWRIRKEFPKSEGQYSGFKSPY
Text: YO-PRO®-1 is a fluorescent DNA-binding dye with a MW of 374 Da (Molecular Probes®, cat. Y3603). This method is based upon the presumed ability of YO-PRO®-1 to enter through the dilated or “large pore form” of P2X7 receptor and to bind to intracellular DNA whereupon it increases many fold its fluorescence intensity. The dye ha an absorption spectrum compatible with excitation at 488 nm by argon laser sources and its emission wavelength is in the range of 515-575 nm. The aim of this assay was to validate the interaction of antagonists with P2X7 receptor using an alternative readout to Ca2+-sensitive fluorescent dyes.
HEK-293 cells stably transfected with P2X7 receptor were seeded overnight un growth medium at 20,000 cell/well in 384-well plate. 24 hours later, the medium was removed, the cells were washed with Low Divalent Cation Assay Buffer (0.3 mM Ca^2+ and 0 mM Mg^2+) and then pre-loaded with 20 μL/w of 5 μM YO-PRO®-1 dye.
FLIPRTETRA fluorescence measurement immediately started. Then 10 μL/w of test compounds and reference antagonist A438079 at 3×-concentration were injected with the FLIPRTETRA and the kinetic response over a period of five minutes was monitored. A second injection of 10 μL/w of 3× Bz-ATP EC80 (30 μM) was performed with the FLIPRTETRA and the signal of the emitted fluorescence was recorded for additional 60 minutes. All the experiment was carried out with a Low Divalent Cation Assay Buffer (0.3 mM Ca^2+ and 0 mM Mg^2+).
The effect of the test compounds was measured as percent inhibition vs the reference antagonist and IC50 values were calculated accordingly.

IC50 (P2X7 receptor [1]) | IC50 (P2X7 receptor [2]) | SMILES
200 to 1000 nM | 181 nM | O=c1snc(Cc2c(F)cccc2Cl)n1CC1CCCCC1 [Example 140, 3-[(2-chloro-6-fluorophenyl)methyl]-4-(cyclohexylmethyl)-4,5-dihydro-1,2,4-thiadiazol-5-one]
200 to 1000 nM | 399 nM | O=c1onc(Cc2cccc(Cl)c2Cl)n1CC1CCCCC1 [Example 115, 4-(cyclohexylmethyl)-3-[(2,3-dichlorophenyl)methyl]-4,5-dihydro-1,2,4-oxadiazol-5-one]
< 200 nM | 31 nM | O=c1snc(Cc2c(F)cccc2Cl)n1CC1CCC(F)(F)CC1 [Example 141, 3-[(2-chloro-6-fluorophenyl)methyl]-4-[(4,4-difluorocyclohexyl)methyl]-4,5-dihydro-1,2,4-thiadiazol-5-one]
< 200 nM | 129 nM | O=c1onc(Cc2ccc(F)cc2Cl)n1CC1CCCCC1 [Example 114, 3-[(2-chloro-4-fluorophenyl)methyl]-4-(cyclohexylmethyl)-4,5-dihydro-1,2,4-oxadiazol-5-one]
< 200 nM | 115 nM | O=c1onc(Cc2c(F)cccc2Cl)n1CC1CCC(F)(F)C1 (racemic) [Example 128, 3-[(2-chloro-6-fluorophenyl)methyl]-4-[(3,3-difluorocyclopentyl)methyl]-4,5-dihydro-1,2,4-oxadiazol-5-one]
< 200 nM | 547 nM | O=c1onc(Cc2ccc(F)cc2F)n1CC1CCCCC1 [Example 119, 4-(cyclohexylmethyl)-3-[(2,4-difluorophenyl)methyl]-4,5-dihydro-1,2,4-oxadiazol-5-one]
200 to 1000 nM | 523 nM | O=c1onc(Cc2c(F)cccc2Cl)n1CC1(F)CCCCC1 [Example 96, 3-[(2-chloro-6-fluorophenyl)methyl]-4-[(1-fluorocyclohexyl)methyl]-4,5-dihydro-1,2,4-oxadiazol-5-one]
< 200 nM | 66 nM | O=c1onc(Cc2c(F)cccc2Cl)n1CC1CCC(F)(F)C1 (single isomer, unassigned) [Example 149, 3-(2-chloro-6-fluorobenzyl)-4-[(3,3-difluorocyclopentyl)methyl]-1,2,4-oxadiazol-5(4H)-one]
< 200 nM | 590 nM | O=c1onc(Cc2ccccc2F)n1CC1CCCCC1 [Example 120, 4-(cyclohexylmethyl)-3-[(2-fluorophenyl)methyl]-4,5-dihydro-1,2,4-oxadiazol-5-one]
200 to 1000 nM | 184 nM | Cc1noc(C)c1Cc1noc(=O)n1CC1CCCCC1 [Example 210, 4-(cyclohexylmethyl)-3-[(dimethyl-1,2-oxazol-4-yl)methyl]-4,5-dihydro-1,2,4-oxadiazol-5-one]
< 200 nM | 233 nM | O=c1onc(CC2CCCCC2)n1Cc1c(F)cccc1Cl [Example 130, 4-[(2-chloro-6-fluorophenyl)methyl]-3-(cyclohexylmethyl)-4,5-dihydro-1,2,4-oxadiazol-5-one]
< 200 nM | 193 nM | O=c1onc(Cc2c(F)cccc2Cl)n1CC1CCCCC1(F)F (centres unmarked) [Example 97, 3-[(2-chloro-6-fluorophenyl)methyl]-4-[(2,2-difluorocyclohexyl)methyl]-4,5-dihydro-1,2,4-oxadiazol-5-one]
200 to 1000 nM | 618 nM | O=c1onc(Cc2ccc(Cl)cc2Cl)n1CC1CCCCC1 [Example 118, 4-(cyclohexylmethyl)-3-[(2,4-dichlorophenyl)methyl]-4,5-dihydro-1,2,4-oxadiazol-5-one]
200 to 1000 nM | 467 nM | O=c1onc(Cc2c(F)cccc2Cl)n1CCC1CCCCC1 [Example 142, 3-(2-chloro-6-fluorobenzyl)-4-(2-cyclohexylethyl)-1,2,4-oxadiazol-5(4H)-one]

More lines, now with the values behind:

SMILES | IC50 (P2X7 receptor [1]) | IC50 (P2X7 receptor [2])
O=c1onc(Cc2c(F)cccc2Cl)n1CC1CCC(F)(F)CC1 [Example 84, 3-[(2-chloro-6-fluorophenyl)methyl]-4-[(4,4-difluorocyclohexyl)methyl]-4,5-dihydro-1,2,4-oxadiazol-5-one] | < 200 nM | 3.4 nM
O=c1onc(Cc2c(F)cccc2Cl)n1CC12CCC(CC1)C2 [Example 91, 4-{bicyclo [2.2.1]heptan-1-ylmethyl}-3-[(2-chloro-6-fluorophenyl)methyl]-4,5-dihydro-1,2,4-oxadiazol-5-one] | < 200 nM | 45 nM
O=c1onc(Cc2c(F)cccc2Cl)n1CC1CC2CCC1C2 (centres unmarked) [Example 88, 4-{bicyclo[2.2.1]heptan-2-ylmethyl}-3-[(2-chloro-6-fluorophenyl)methyl]-4,5-dihydro-1,2,4-oxadiazol-5-one] | < 200 nM | 63 nM
O=c1onc(Cc2c(F)cccc2Cl)n1Cc1ccc(Cl)cc1 [Example 65, 3-[(2-chloro-6-fluorophenyl)methyl]-4-[(4-chlorophenyl)methyl]-4,5-dihydro-1,2,4-oxadiazol-5-one] | 200 to 1000 nM | 318 nM
O=c1onc(Cc2c(F)cccc2Cl)n1Cc1ccc(F)cc1 [Example 55, 3-[(2-chloro-6-fluorophenyl)methyl]-4-[(4-fluorophenyl)methyl]-4,5-dihydro-1,2,4-oxadiazol-5-one] | 200 to 1000 nM | 50 nM
O=c1onc(Cc2ccc(F)cc2Cl)n1Cc1ccc(F)cc1 [Example 73, 3-[(2-chloro-4-fluorophenyl)methyl]-4-[(4-fluorophenyl)methyl]-4,5-dihydro-1,2,4-oxadiazol-5-one] | 200 to 1000 nM | 670 nM
O=c1onc(Cc2c(F)cccc2Cl)n1Cc1ccc(F)cc1Cl [Example 60, 4-[(2-chloro-4-fluorophenyl)methyl]-3-[(2-chloro-6-fluorophenyl)methyl]-4,5-dihydro-1,2,4-oxadiazol-5-one] | 1000 to 10000 nM | 366 nM
O=c1onc(Cc2c(F)cccc2Cl)n1CC1CCCCCC1 [Example 92, 3-[(2-chloro-6-fluorophenyl)methyl]-4-(cycloheptylmethyl)-4,5-dihydro-1,2,4-oxadiazol-5-one] | < 200 nM | 42 nM
O=c1onc(Cc2c(F)cccc2Cl)n1CC1CCCCC1 [Example 82, 3-[(2-chloro-6-fluorophenyl)methyl]-4-(cyclohexylmethyl)-4,5-dihydro-1,2,4-oxadiazol-5-one] | < 200 nM | 30 nM
O=c1onc(Cc2cccc(Cl)c2Cl)n1Cc1ccc(F)cc1 [Example 71, 3-[(2,3-dichlorophenyl)methyl]-4-[(4-fluorophenyl)methyl]-4,5-dihydro-1,2,4-oxadiazol-5-one] | 1000 to 10000 nM | 461 nM
CC(c1ccc(F)cc1)n1c(Cc2c(F)cccc2Cl)noc1=O (centres unmarked) [Example 48, 3-[(2-chloro-6-fluorophenyl)methyl]-4-[1-(4-fluorophenyl)ethyl]-4,5-dihydro-1,2,4-oxadiazol-5-one] | 200 to 1000 nM | 340 nM
